Test results: publication PMC8838415, “Discovery of Novel Pleuromutilin Derivatives as Potent Antibacterial Agents for the Treatment of MRSA Infection” (Molecules, 2022)
pKd: −log10 of the molar value. In brackets after ≈: the same amount, converted by molar mass.

Assays:
S. aureus (ATCC 29213) = assay: MIC and MBC, broth dilution, S. aureus ATCC 29213; type: cell-based; conditions: Staphylococcus aureus, ATCC29213
Method: (§1) The synthesized pleuromutilin derivatives 8–30 were tested against four Gram-positive bacteria (MRSA ATCC 43300, S. aureus ATCC 29213 and two clinical strains of S. aureus (AD3 and 144) isolated from Guangdong Province). Tiamulin was used as the positive control in this experiment.
(§2) MIC values were tested following our previous work. The derivatives were dissolved in an aqueous solution of 2.5% tween-80 and 2.5% DMSO to make a solution with a concentration of 1000 µg/mL. The solution was diluted 12 times with MH broth to give a concentration range of 32–0.01 µg/mL. The bacteria (5 × 10^5 CFU/mL) were added in each well. For each compound concentration, three parallel experiments were set. The 96-well plate was incubated for 22–26 h at 37 °C. The MIC value was recorded as the minimal concentration that inhibits the visible growth of tested bacteria completely.
(§3) The MBC of these pleuromutilin derivatives were tested according to a previously reference. […] Then, the values of MBC were determined by laying 100 μL aliquots from the wells onto the MH agar plates without visible growth. The MH agar plate was cultured for a further 22–26 h at 37 °C.

S. aureus (144) = assay: MIC and MBC, broth dilution, S. aureus 144; type: cell-based; conditions: Staphylococcus aureus; S. aureus 144 (clinical strain)
Method: as §1, §2, §3

S. aureus (AD3) = assay: MIC and MBC, broth dilution, S. aureus AD3; type: cell-based; conditions: Staphylococcus aureus; S. aureus AD3 (clinical strain)
Method: as §1, §2, §3

[1] = tested on: methicillin-resistant S. aureus (ATCC 43300); assay: MIC and MBC, broth dilution, MRSA ATCC 43300; type: cell-based; conditions: Staphylococcus aureus
Method: as §1, §2, §3

50S ribosome = assay: SPR interaction and affinity analysis; type: binding, S. aureus ATCC 43300; conditions: 4 °C; for Avg kd / Avg ka: 1:1 Langmuir binding; for pKd: KD = Kd/Ka
Method: S. aureus ATCC 43300 was used to prepare the 50S ribosomal subunit the same way as described previously. Cells were grown overnight in Brain Heart Infusion broth at 37 °C and harvested for 1.5 h at an OD600. Cells were washed with 10 mM Tris-HCl twice at pH = 7.5, and resuspended in 5 mL buffer A (20 mM HEPES-HCl pH = 7.5, 21 mM Mg(OAc)2, 100 mM NH4Cl, 1 mM DTT, 1 mM EDTA). Cells were broken by an ultrasound crusher. The lysate was centrifuged for 90 min at 20,000× g to clear cell debris.
The solution was layered on a sucrose cushion of 15 mL (10 mM Hepes-KOH pH 7.5, 25 mM Mg(OAc)2, 500 mM KCl, […], 1 mM DTT, 0.5 mM EDTA). Centrifugation was carried out for 15 h at 45,000 rpm using an ultracentrifuge Beckman (Beckman Coulter, Shanghai, China), Type 70Ti rotor. The crude ribosome pellet was resuspended in buffer E (10 mM Hepes-KOH pH 7.5, 10 mM Mg(OAc)2, 100 mM KCl, 1 mM DTT, 0.5 mM EDTA), then layered on 9 mL of 7–30% sucrose gradient and centrifuged in an ultracentrifuge Beckman, type SW40Ti rotor at 17,100 rpm for 15 h. The gradient was analyzed on the AKTA explorer system (Amersham, UK). The fractions corresponding to the 50S ribosomal subunit were collected and further subjected to precipitation by PEG 20,000. The 50S ribosomal subunit pellet was gently dissolved in 200 µL of storage buffer (10 mM HEPES-HCl pH = 7.5, 10 mM Mg(OAc)2, 15 mM KCl, 60 mM NH4Cl, 1 mM DTT) and stored at −80 °C.
SPR affinity analysis was performed on the bScreen LB 991 Label-free Microarray System (Berthold Technologies, Black Forest, Germany) at 4 °C and Biodot AD-1520 Array Printer (BIODOT Inc., Irvine, CA, USA) with a Photo-cross-linker SensorCHIP™. Concentrations of each compound were diluted to 100 μM with DMSO as the printing working solution for immobilization. A Biodot AD-1520 Array Printer (BIODOT Inc., CA, USA) was used to control the photo-cross-linker sensor chip and print samples. Each sample was printed four times. In order to check the chip quality and check whether the detection system works, DMSO was used as a system-negative control and rapamycin as a positive control. All positive control dots were divided into four groups and printed on the four corners of the sensor chip. The sensor chip was dried in vacuum after the array print and quickly transferred to a spectra radiator for a photo cross-linking reaction. The sensor chip was washed with C2H5OH, DMF and H2O in turn and evaporated in a N2 atmosphere for 15 min. Then, the Flowcell Cover were assembled.
The 50S ribosome was diluted separately to 200 nM, 400 nM, 800 nM, 1600 nM and 3200 nM with PBST (pH = 7.4, 0.1% Tween 20). Different concentrations of ribosome solutions were injected at a flow rate of 0.5 μL⋅s^−1 for 600 s at the associating stage at 4 °C, followed by PBST at a flow rate of 0.5⋅μL·s^−1 for 360 s at each dissociating stage. Then, the surface was regenerated with Glycine-HCl (pH = 2.0) at a flow rate of 2⋅μL·s^−1 for 300 s.
The raw data of the binding process of compounds and the 50S ribosome were recorded in real time. We compared the response unit (RU) of surface resonance to determine the different binding affinity between each sample dot. The process and analysis of association rate constants (Ka) and dissociation rate constants (Kd) and the equilibrium dissociation constant (KD, Kd/Ka) were performed using the data analysis software of the bScreen LB 991 Label-free Microarray System according to a single-site binding model (1:1 Langmuir binding) with mass transfer limitations for binding kinetics determination.

Molecule | MBC (S. aureus (ATCC 29213)) [µg/mL] | MIC (S. aureus (ATCC 29213)) [µg/mL] | MBC (S. aureus (144)) [µg/mL] | MIC (S. aureus (144)) [µg/mL] | MBC (S. aureus (AD3)) [µg/mL] | MIC (S. aureus (AD3)) [µg/mL] | MBC [1] [µg/mL] | MIC [1] [µg/mL] | Avg kd (50S ribosome) [s⁻¹] | pKd (50S ribosome) | melting point [°C] | Avg ka (50S ribosome) [M⁻¹ s⁻¹]
C=C[C@]1(C)C[C@@H](OC(=O)CNc2cccc(F)c2)[C@]2(C)[C@H](C)CC[C@]3(CCC(=O)[C@H]32)[C@@H](C)[C@@H]1O [Compound 8] | 0.25 (≈ 0.53 µM) | 0.12 (≈ 0.254 µM) | 0.5 (≈ 1.06 µM) | 0.25 (≈ 0.53 µM) | 0.5 (≈ 1.06 µM) | 0.12 (≈ 0.254 µM) | 0.12 (≈ 0.254 µM) | 0.03 (≈ 0.0636 µM) | – | – | – | –
C=C[C@]1(C)C[C@@H](OC(=O)CNc2cccc(Cl)c2)[C@]2(C)[C@H](C)CC[C@]3(CCC(=O)[C@H]32)[C@@H](C)[C@@H]1O [Compound 10, 22-(3-Chloroanilineyl)-22-deoxypleuromutilin] | 0.25 (≈ 0.512 µM) | 0.12 (≈ 0.246 µM) | 0.5 (≈ 1.02 µM) | 0.25 (≈ 0.512 µM) | 0.5 (≈ 1.02 µM) | 0.125 (≈ 0.256 µM) | 0.12 (≈ 0.246 µM) | 0.12 (≈ 0.246 µM) | 0.00224 | 4.59 | 158 to 160 | –
C=C[C@]1(C)C[C@@H](OC(=O)CNc2ccc(Cl)cc2)[C@]2(C)[C@H](C)CC[C@]3(CCC(=O)[C@H]32)[C@@H](C)[C@@H]1O [Compound 11, 22-(4-Chloroanilineyl)-22-deoxypleuromutilin] | 1 (≈ 2.05 µM) | 0.5 (≈ 1.02 µM) | 2 (≈ 4.1 µM) | 1 (≈ 2.05 µM) | 1 (≈ 2.05 µM) | 0.25 (≈ 0.512 µM) | 0.25 (≈ 0.512 µM) | 0.12 (≈ 0.246 µM) | 0.0019 | 4.29 | 94 to 95 | –
C=C[C@]1(C)C[C@@H](OC(=O)CNc2cccc(Br)c2)[C@]2(C)[C@H](C)CC[C@]3(CCC(=O)[C@H]32)[C@@H](C)[C@@H]1O [Compound 12, 22-(3-Bromoanilineyl)-22-deoxypleuromutilin] | 0.5 (≈ 0.939 µM) | 0.25 (≈ 0.469 µM) | 2 (≈ 3.76 µM) | 1 (≈ 1.88 µM) | 1 (≈ 1.88 µM) | 0.25 (≈ 0.469 µM) | 0.25 (≈ 0.469 µM) | 0.12 (≈ 0.225 µM) | 6.25e-05 | 5.82 | 161 to 163 | –
C=C[C@]1(C)C[C@@H](OC(=O)CNc2ccc(Br)cc2)[C@]2(C)[C@H](C)CC[C@]3(CCC(=O)[C@H]32)[C@@H](C)[C@@H]1O [Compound 13, 22-(4-Bromoanilineyl)-22-deoxypleuromutilin] | 0.25 (≈ 0.469 µM) | 0.25 (≈ 0.469 µM) | 1 (≈ 1.88 µM) | 0.5 (≈ 0.939 µM) | 1 (≈ 1.88 µM) | 0.25 (≈ 0.469 µM) | 0.12 (≈ 0.225 µM) | 0.12 (≈ 0.225 µM) | 0.197 | 2.20 | 97 to 98 | –
C=C[C@]1(C)C[C@@H](OC(=O)CNCc2ccccc2F)[C@]2(C)[C@H](C)CC[C@]3(CCC(=O)[C@H]32)[C@@H](C)[C@@H]1O [Compound 14, 22-(2-Fluorobenzylamineyl)-22-deoxypleuromutilin] | 8 (≈ 16.5 µM) | 4 (≈ 8.24 µM) | 8 (≈ 16.5 µM) | 4 (≈ 8.24 µM) | 8 (≈ 16.5 µM) | 2 (≈ 4.12 µM) | 2 (≈ 4.12 µM) | 1 (≈ 2.06 µM) | 0.065 | 3.37 | 163 to 164 | 153
C=C[C@]1(C)C[C@@H](OC(=O)CNCc2cccc(F)c2)[C@]2(C)[C@H](C)CC[C@]3(CCC(=O)[C@H]32)[C@@H](C)[C@@H]1O [Compound 15, 22-(3-Fluorobenzylamineyl)-22-deoxypleuromutilin] | 8 (≈ 16.5 µM) | 4 (≈ 8.24 µM) | 16 (≈ 32.9 µM) | 8 (≈ 16.5 µM) | 8 (≈ 16.5 µM) | 2 (≈ 4.12 µM) | 2 (≈ 4.12 µM) | 1 (≈ 2.06 µM) | 0.00432 | 5.66 | 143 to 144 | 1960
C=C[C@]1(C)C[C@@H](OC(=O)CNCc2ccc(F)cc2)[C@]2(C)[C@H](C)CC[C@]3(CCC(=O)[C@H]32)[C@@H](C)[C@@H]1O [Compound 16, 22-(4-Fluorobenzylamineyl)-22-deoxypleuromutilin] | 32 (≈ 65.9 µM) | 16 (≈ 32.9 µM) | 32 (≈ 65.9 µM) | 16 (≈ 32.9 µM) | 16 (≈ 32.9 µM) | 8 (≈ 16.5 µM) | 8 (≈ 16.5 µM) | 4 (≈ 8.24 µM) | 0.00929 | 2.34 | 76 to 77 | 2.04
C=C[C@]1(C)C[C@@H](OC(=O)CNCCc2ccccc2)[C@]2(C)[C@H](C)CC[C@]3(CCC(=O)[C@H]32)[C@@H](C)[C@@H]1O [Compound 17, 22-(2-PhenylethylaMineyl)-22-deoxypleuromutilin] | 8 (≈ 16.6 µM) | 2 (≈ 4.15 µM) | 4 (≈ 8.3 µM) | 4 (≈ 8.3 µM) | 8 (≈ 16.6 µM) | 2 (≈ 4.15 µM) | 1 (≈ 2.08 µM) | 1 (≈ 2.08 µM) | 0.00963 | 2.33 | 73 to 75 | 2.05
penicillin [reference compound] | – | – | – | – | – | – | – | – | 0.515 | – | – | 2.10
